Source: ChEMBL document CHEMBL2440027, “Further SAR studies on bicyclic basic merbarone analogues as potent antiproliferative agents” (Bioorg Med Chem, 2013)

Legend:
Type in all cases: functional
A498 [1] = assay: Growth inhibition of human A498 cells assessed as cell growth at 10 uM after 48 hrs by sulforhodamine B assay relative to control; details: A498, 48 h, read-out: Activity
[2] = Growth inhibition of human NCI-ADR-RES cells assessed as cell growth at 10 uM after 48 hrs by sulforhodamine B assay relative to control; details: read-out: Activity
OVCAR-4 = assay: Growth inhibition of human OVCAR4 cells assessed as cell growth at 10 uM after 48 hrs by sulforhodamine B assay relative to control; details: OVCAR-4, 48 h, read-out: Activity
UACC-257 = assay: Growth inhibition of human UACC257 cells assessed as cell growth at 10 uM after 48 hrs by sulforhodamine B assay relative to control; details: UACC-257, 48 h, read-out: Activity
SK-MEL-28 = assay: Growth inhibition of human SK-MEL-28 cells assessed as cell growth at 10 uM after 48 hrs by sulforhodamine B assay relative to control; details: SK-MEL-28, 48 h, read-out: Activity
MDA-MB-435 = assay: Growth inhibition of human MDA-MB-435 cells assessed as cell growth at 10 uM after 48 hrs by sulforhodamine B assay relative to control; details: MDA-MB-435, 48 h, read-out: Activity
M14 [3] = assay: Growth inhibition of human M14 cells assessed as cell growth at 10 uM after 48 hrs by sulforhodamine B assay relative to control; details: M14, 48 h, read-out: Activity
Malme-3M [4] = assay: Growth inhibition of human MALME-3M cells assessed as cell growth at 10 uM after 48 hrs by sulforhodamine B assay relative to control; details: read-out: Activity
U-251 = assay: Growth inhibition of human U251 cells assessed as cell growth at 10 uM after 48 hrs by sulforhodamine B assay relative to control; details: U-251, 48 h, read-out: Activity
SNB-19 = assay: Growth inhibition of human SNB19 cells assessed as cell growth at 10 uM after 48 hrs by sulforhodamine B assay relative to control; details: SNB-19, 48 h, read-out: Activity
SF-539 = assay: Growth inhibition of human SF539 cells assessed as cell growth at 10 uM after 48 hrs by sulforhodamine B assay relative to control; details: SF-539, 48 h, read-out: Activity
KM12 = assay: Growth inhibition of human KM12 cells assessed as cell growth at 10 uM after 48 hrs by sulforhodamine B assay relative to control; details: KM12, 48 h, read-out: Activity
HCT-15 = assay: Growth inhibition of human HCT15 cells assessed as cell growth at 10 uM after 48 hrs by sulforhodamine B assay relative to control; details: HCT-15, 48 h, read-out: Activity
NCI-H460 = assay: Growth inhibition of human NCI-H460 cells assessed as cell growth at 10 uM after 48 hrs by sulforhodamine B assay relative to control; details: NCI-H460, 48 h, read-out: Activity
HOP-62 = assay: Growth inhibition of human HOP62 cells assessed as cell growth at 10 uM after 48 hrs by sulforhodamine B assay relative to control; details: HOP-62, 48 h, read-out: Activity
MOLT-4 = assay: Growth inhibition of human MOLT4 cells assessed as cell growth at 10 uM after 48 hrs by sulforhodamine B assay relative to control; details: MOLT-4, 48 h, read-out: Activity
K562 [5] = assay: Growth inhibition of human K562 cells assessed as cell growth at 10 uM after 48 hrs by sulforhodamine B assay relative to control; details: K562, 48 h, read-out: Activity
BT-549 [6] = assay: Growth inhibition of human BT549 cells after 48 hrs by sulforhodamine B assay; details: BT-549, 48 h; for CC50: read-out: LC50 (the source's name)
[7] = Growth inhibition of human Hs 578T cells after 48 hrs by sulforhodamine B assay; details: for CC50: read-out: LC50 (the source's name)
TK-10 = assay: Growth inhibition of human TK10 cells after 48 hrs by sulforhodamine B assay; details: TK-10, 48 h; for CC50: read-out: LC50 (the source's name)
A498 [8] = assay: Growth inhibition of human A498 cells after 48 hrs by sulforhodamine B assay; details: A498, 48 h; for CC50: read-out: LC50 (the source's name)
[9] = Growth inhibition of human NCI-ADR-RES cells after 48 hrs by sulforhodamine B assay; details: for CC50: read-out: LC50 (the source's name)
OVCAR-5 = assay: Growth inhibition of human OVCAR5 cells after 48 hrs by sulforhodamine B assay; details: OVCAR-5, 48 h; for CC50: read-out: LC50 (the source's name)
M14 [10] = assay: Growth inhibition of human M14 cells after 48 hrs by sulforhodamine B assay; details: M14, 48 h; for CC50: read-out: LC50 (the source's name)
Malme-3M [11] = assay: Growth inhibition of human MALME-3M cells after 48 hrs by sulforhodamine B assay; details: for CC50: read-out: LC50 (the source's name)
SNB-75 = assay: Growth inhibition of human SNB75 cells after 48 hrs by sulforhodamine B assay; details: SNB-75, 48 h
SF-268 = assay: Growth inhibition of human SF268 cells after 48 hrs by sulforhodamine B assay; details: SF-268, 48 h
[12] = Growth inhibition of human HCC2998 cells after 48 hrs by sulforhodamine B assay; details: HCC 2998, 48 h
NCI-H226 = assay: Growth inhibition of human NCI-H226 cells after 48 hrs by sulforhodamine B assay; details: NCI-H226, 48 h
K562 [13] = assay: Growth inhibition of human K562 cells after 48 hrs by sulforhodamine B assay; details: K562, 48 h
HL-60(TB) = assay: Growth inhibition of human HL-60(TB) cells after 48 hrs by sulforhodamine B assay; details: HL-60, 48 h
CCRF-CEM = assay: Growth inhibition of human CCRF-CEM cells after 48 hrs by sulforhodamine B assay
BT-549 [14] = assay: Growth inhibition of human BT549 cells assessed as cell growth at 10 uM after 48 hrs by sulforhodamine B assay relative to control; details: BT-549, 48 h, read-out: Activity
SN12C = assay: Growth inhibition of human SN12C cells assessed as cell growth at 10 uM after 48 hrs by sulforhodamine B assay relative to control; details: read-out: Activity

Compound: CN(C)CCNc1nc2c(c(=N)n1-c1ccccc1)c(=S)n(-c1ccccc1)c(=S)n2-c1ccccc1
- growth at 10 µM (A498 [1]): 40.3%
- growth at 10 µM [2]: 58.8%
- growth at 10 µM (OVCAR-4): 41.7%
- growth at 10 µM (UACC-257): -74.6%
- growth at 10 µM (SK-MEL-28): -100%
- growth at 10 µM (MDA-MB-435): -64.5%
- growth at 10 µM (M14 [3]): -84.4%
- growth at 10 µM (Malme-3M [4]): -89.5%
- growth at 10 µM (U-251): 2.1%
- growth at 10 µM (SNB-19): 26.1%
- growth at 10 µM (SF-539): -86.9%
- growth at 10 µM (KM12): 0.2%
- growth at 10 µM (HCT-15): 18.8%
- growth at 10 µM (NCI-H460): 3.8%
- growth at 10 µM (HOP-62): 6.19%
- growth at 10 µM (MOLT-4): 3.92%
- growth at 10 µM (K562 [5]): -11.4%
- GI50 (BT-549 [6]): 5.3 µM
- TGI (BT-549 [6]): 21.3 µM
- CC50 (BT-549 [6]): 62.1 µM
- GI50 [7]: 2.3 µM
- TGI [7]: 7.7 µM
- CC50 [7]: 40 µM
- GI50 (TK-10): 3.5 µM
- TGI (TK-10): 14.3 µM
- CC50 (TK-10): 48.8 µM
- GI50 (A498 [8]): 2.4 µM
- TGI (A498 [8]): 6.8 µM
- CC50 (A498 [8]): 28.1 µM
- GI50 [9]: 10.5 µM
- TGI [9]: 31 µM
- CC50 [9]: 91 µM
- GI50 (OVCAR-5): 12.1 µM
- TGI (OVCAR-5): 29.5 µM
- CC50 (OVCAR-5): 72.1 µM
- GI50 (M14 [10]): 1.8 µM
- TGI (M14 [10]): 4.3 µM
- CC50 (M14 [10]): 89.1 µM
- GI50 (Malme-3M [11]): 2.6 µM
- TGI (Malme-3M [11]): 5 µM
- CC50 (Malme-3M [11]): 9.5 µM
- GI50 (SNB-75): 2.4 µM
- LC50 (SNB-75): 31.9 µM
- TGI (SNB-75): 7.5 µM
- GI50 (SF-268): 4.1 µM
- LC50 (SF-268): 45.6 µM
- TGI (SF-268): 15.3 µM
- GI50 [12]: 2.3 µM
- LC50 [12]: 43 µM
- TGI [12]: 6.8 µM
- GI50 (NCI-H226): 11.6 µM
- LC50 (NCI-H226): 59.5 µM
- TGI (NCI-H226): 26.3 µM
- GI50 (K562 [13]): 0.4 µM
- LC50 (concentration killing 50% of cells) (K562 [13]): 6.8 µM
- TGI (K562 [13]): 2.2 µM
- GI50 (HL-60(TB)): 1.5 µM
- LC50 (HL-60(TB)): 7.1 µM
- TGI (HL-60(TB)): 3.3 µM
- GI50 (CCRF-CEM): 1.4 µM
- LC50 (CCRF-CEM): 9.2 µM
- TGI (CCRF-CEM): 3.6 µM
- growth at 10 µM (BT-549 [14]): 4.45%
- growth at 10 µM (SN12C): 52.3%

Compound: CCCCN(CCCC)CCCNc1nc2c(c(=N)n1-c1ccccc1)c(=S)n(-c1ccccc1)c(=S)n2-c1ccccc1
- growth at 10 µM (A498 [1]): -100%
- growth at 10 µM [2]: -71.1%
- growth at 10 µM (OVCAR-4): -82%
- growth at 10 µM (UACC-257): -73.1%
- growth at 10 µM (SK-MEL-28): -100%
- growth at 10 µM (MDA-MB-435): -100%
- growth at 10 µM (M14 [3]): -86.3%
- growth at 10 µM (Malme-3M [4]): -91.5%
- growth at 10 µM (U-251): -100%
- growth at 10 µM (SNB-19): -87.4%
- growth at 10 µM (SF-539): -97.7%
- growth at 10 µM (KM12): -100%
- growth at 10 µM (HCT-15): -73.3%
- growth at 10 µM (NCI-H460): -95.7%
- growth at 10 µM (HOP-62): -99.5%
- growth at 10 µM (MOLT-4): -55.8%
- growth at 10 µM (K562 [5]): -90.3%
- GI50 (BT-549 [6]): 1.5 µM
- TGI (BT-549 [6]): 3.2 µM
- CC50 (BT-549 [6]): 6.7 µM
- GI50 [7]: 0.5 µM
- TGI [7]: 1.9 µM
- CC50 [7]: 5.5 µM
- GI50 (TK-10): 1.3 µM
- TGI (TK-10): 2.7 µM
- CC50 (TK-10): 5.6 µM
- GI50 (A498 [8]): 1.1 µM
- TGI (A498 [8]): 2.4 µM
- CC50 (A498 [8]): 5.2 µM
- GI50 [9]: 1.6 µM
- TGI [9]: 3.3 µM
- CC50 [9]: 8.1 µM
- GI50 (OVCAR-5): 1.4 µM
- TGI (OVCAR-5): 2.8 µM
- CC50 (OVCAR-5): 5.5 µM
- GI50 (M14 [10]): 0.2 µM
- TGI (M14 [10]): 0.4 µM
- CC50 (M14 [10]): 0.8 µM
- GI50 (Malme-3M [11]): 0.2 µM
- TGI (Malme-3M [11]): 0.5 µM
- CC50 (Malme-3M [11]): 1.5 µM
- GI50 (SNB-75): 0.4 µM
- LC50 (SNB-75): 4.1 µM
- TGI (SNB-75): 1.6 µM
- GI50 (SF-268): 1 µM
- LC50 (SF-268): 4.7 µM
- TGI (SF-268): 2.2 µM
- GI50 [12]: 0.4 µM
- LC50 [12]: 4.7 µM
- TGI [12]: 1.8 µM
- GI50 (NCI-H226): 1.4 µM
- LC50 (NCI-H226): 5.5 µM
- TGI (NCI-H226): 2.8 µM
- GI50 (K562 [13]): 0.2 µM
- GI50 (HL-60(TB)): 0.2 µM
- GI50 (CCRF-CEM): 0.1 µM
- LC50 (CCRF-CEM): 0.6 µM
- TGI (CCRF-CEM): 0.3 µM
- growth at 10 µM (BT-549 [14]): -90.6%
- growth at 10 µM (SN12C): -99.2%
